This is an account of results in patent publication US11427544B2, “Histone deacetylase 6 inhibitors and use thereof” (TAIPEI MEDICAL UNIVERSITY, priority 2016, dated 2022).

Structures can show the parent of a compound that is named as a salt.

The target of one series is T1, HDAC1 (Homo sapiens, UniProt Q13547).
T1 construct: purchased BPS Bioscience Corp
Put plainly: Fluorogenic HDAC assay, HDAC1. In kind it is biochemical. To be noted: recombinant HDAC1; read-out: Enzyme IC50 HDAC1. The text has this:
(§1) Of note, there are eighteen human HDACs. Eleven of them, designated as HDAC1-11, are zinc-dependent. Seven of them, designated as Sirt1-7, are NAD+-dependent.
(§2) Fluorogenic HDAC assay kits were used to assess the ability of HDAC inhibitors to inhibit deacetylation of lysine residues on a substrate by recombinant proteins HDAC1, 3, 4, 5, 6, 7, 8, 9 and Sirt1 according to the manufacturer's instructions (BPS Bioscience Corp., San Diego, Calif., USA).

A further series concerns the target T2, HDAC6 (Homo sapiens, UniProt Q9UBN7).
T2 construct: purchased BPS Bioscience Corp
T2 sequence (Q9UBN7 1-1215): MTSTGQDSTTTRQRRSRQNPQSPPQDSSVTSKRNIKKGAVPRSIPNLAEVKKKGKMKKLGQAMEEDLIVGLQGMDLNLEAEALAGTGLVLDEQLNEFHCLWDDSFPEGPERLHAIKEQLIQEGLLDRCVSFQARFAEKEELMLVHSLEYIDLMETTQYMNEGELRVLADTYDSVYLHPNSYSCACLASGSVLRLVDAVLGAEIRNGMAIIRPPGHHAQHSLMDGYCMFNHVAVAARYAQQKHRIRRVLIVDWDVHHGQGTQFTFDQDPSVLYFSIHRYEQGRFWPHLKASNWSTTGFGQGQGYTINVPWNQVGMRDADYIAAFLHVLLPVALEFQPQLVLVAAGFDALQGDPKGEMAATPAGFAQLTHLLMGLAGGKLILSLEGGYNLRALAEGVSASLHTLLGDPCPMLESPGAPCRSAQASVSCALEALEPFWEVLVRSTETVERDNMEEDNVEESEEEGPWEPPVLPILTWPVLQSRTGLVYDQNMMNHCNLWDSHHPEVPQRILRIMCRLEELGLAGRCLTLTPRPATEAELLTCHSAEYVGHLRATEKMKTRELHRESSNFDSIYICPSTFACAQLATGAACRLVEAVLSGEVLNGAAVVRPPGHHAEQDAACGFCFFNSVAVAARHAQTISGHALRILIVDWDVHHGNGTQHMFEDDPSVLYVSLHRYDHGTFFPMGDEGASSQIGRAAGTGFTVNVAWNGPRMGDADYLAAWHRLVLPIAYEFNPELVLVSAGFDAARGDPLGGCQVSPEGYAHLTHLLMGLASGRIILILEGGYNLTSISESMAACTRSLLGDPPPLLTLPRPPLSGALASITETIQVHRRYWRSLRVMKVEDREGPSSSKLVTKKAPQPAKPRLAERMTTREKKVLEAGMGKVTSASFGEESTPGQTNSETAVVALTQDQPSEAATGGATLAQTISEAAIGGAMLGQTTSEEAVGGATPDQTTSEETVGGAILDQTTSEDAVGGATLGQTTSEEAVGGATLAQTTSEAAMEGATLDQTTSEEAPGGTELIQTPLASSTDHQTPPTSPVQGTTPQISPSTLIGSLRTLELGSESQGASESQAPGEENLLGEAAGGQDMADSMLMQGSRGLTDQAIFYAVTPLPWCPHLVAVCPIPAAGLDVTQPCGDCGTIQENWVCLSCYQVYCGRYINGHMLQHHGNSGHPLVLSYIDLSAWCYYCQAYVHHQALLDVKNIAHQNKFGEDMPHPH
Put plainly: Fluorogenic HDAC assay, HDAC6. It is filed as biochemical.
From the text: as §1, §2

Series [1] has as its system PC-3 prostate cancer cell line. Put plainly: Antiproliferative activity, PC-3. As to conditions: Homo sapiens. In kind it is cell-based, human. Here is the method:
(§3) A study was conducted to evaluate the inhibitory activity of compounds of Formula (I) in inhibiting HDAC6, antiproliferative activity of test compounds in suppressing cancer cell growth, and selectivity of inhibiting HDAC6 over other HDAC isoforms.
(§4) The study was performed according to the protocol reported in Hsieh et al., Cell Death and Disease, 2014, April; 5:e1166.
(§5) Shown in Table 2 below are antiproliferative activities (measured by their half maximal concentration for inhibiting cell growth, i.e., GI50) of the test compounds against various cancer cell lines.

Series [2] relates to A549 lung cancer cell line. Put plainly: Antiproliferative activity, A549. As to conditions: Homo sapiens. In kind it is cell-based, human. Here is the method: as §3, §4, §5
In series [3] the test system is APP in pCAX APP 695 plasmid-transfected Neuro 2a cells. Put plainly: Amyloid precursor protein (APP) levels, Western blot. In kind it is cell-based. As to conditions: pCAX APP 695 transfected neuro 2a cells; 0.1-10 μM, 24 hours. Here is the method:
(§6) A study was conducted to evaluate the effect of compounds of Formula (I) in amyloid precursor protein (APP) levels and Aβ42 production.
Neuro 2a cells (1×10^6) in 6-well plates were transfected with pCAX APP 695 plasmid for 24 hours, then incubated for another 24 hours with Compound 12, Compound 28, or tubasatin A (0.1-10 μM). Cells were then harvested and cell lysates were prepared for Western blot analysis of the APP proteins.

Series [4] has as its system Aβ42 production in pCAX APP 695 plasmid-transfected Neuro 2a and SH—SYSY cells. The series can be described thus: Aβ42 production in cell culture supernatants. In kind it is cell-based. To be noted: pCAX APP 695 transfected Neuro 2a and SH—SYSY cells; 0.1-10 μM, 24 hours. Here is the method:
as §6
Moreover, neuro 2a or SH—SYSY cells (1×10^5) were transfected with pCAX APP 695 plasmid for 24 hours, followed by incubation with Compound 12 or Compound 28 (0.1-10 μM) for another 24 hours. Cell culture supernatants were assayed for Aβ42 production.

Series [5] has as its system HL-60 Acute promyelocytic leukemia. Put plainly: Tumor growth inhibition, HL-60 xenograft. It is filed as in vivo, athymic nude mice. To be noted: 50 mg/kg, qd, intraperitoneal. As to the method:
(§7) An in vivo study was conducted to evaluate the efficacy of compounds of Formula (I) in suppressing tumor growth in multiple human cancer types.
(§8) Eight-week-old athymic nude mice were group-housed under conditions of constant photoperiod (12 h light/12 h dark at 21-23° C. and 60-85% humidity) with ad libitum access to sterilized food and water. All animal experiments followed ethical standards, and protocols were reviewed and approved by the Animal Use and Management Committee of National Taiwan University. Each mouse was inoculated subcutaneously with 1×10^6˜1×10^7 human cancer cells in a total volume of 0.1 mL serum-free medium containing 50% Matrigel (BD Biosciences). As tumors became established (˜100 mm^3), mice were randomized to various groups to be treated with pre-determined materials (n=6-8/group): (i) control group: 0.5% DMSO/0.5% Cremophor/90% D5W and (ii) treatment groups: Compounds 12 and 28 at pre-determined doses daily. Mice received treatment by intraperitoneal injection for the duration of the study. Tumors were measured weekly using calipers. Tumor size, in mm^3, was calculated according to the formula: Tumor volume=(w^2×l)/2, where w and 1 respectively represent the width and length (both in mm) of the tumor.

Series [6] relates to BJAB Burkitt lymphoma-derived B-cell. The series can be described thus: Tumor growth inhibition, BJAB xenograft. To be noted: 50 mg/kg, qd, intraperitoneal. In kind it is in vivo, athymic nude mice. As to the method:
as §7, §8

Series [7] can be described thus: Safety in ICR mice, 7-day intraperitoneal dosing. It is filed as in vivo. As to conditions: 50, 100, and 200 mg/kg intraperitoneally once a day for 7 days, monitored another 7 days. Here is the method:
In addition, both Compounds 12 and 28 were studied to evaluate their safety in animals.
[…]. The animals were dosed intraperitoneally once a day for 7 days and then monitored for another 7 days. The animals were weighed daily for 1 week and then twice weekly.

Series [8] deals with scopolamine-induced memory deficit. The series can be described thus: Water maze test, scopolamine-treated rats. It is filed as in vivo. To be noted: gavage twice daily for seven days; scopolamine 1.5 mg/kg i.p. Here is the method:
An in vivo study was conducted to evaluate the efficacy of compounds of Formula (I) in improving memory deficits associated with Alzheimer's disease.
(§9) Compound 12, Compound 28, suberanilohydroxamic acid (50 mg/kg) or vehicle was given to rats by gavage twice daily for seven days prior to behavioral experiments. On the day conducting a behavior assessment, rats in all groups except the control group were administered scopolamine (1.5 mg/kg) by intraperitoneal injection for 30 minutes before the assessment, then a water maze test or an elevated plus maze test was performed.

Series [9] shares this test system. The series can be described thus: Elevated plus maze test, scopolamine-treated rats. It is filed as in vivo. As to conditions: gavage twice daily for seven days; scopolamine 1.5 mg/kg i.p. As to the method: as §9, with “An in vivo study was conducted to evaluate the efficacy of compounds of Formula (I) in improving memory deficits associated with Alzheimer's disease. Compound 12,” for “Compound 12,”, “was performed. […] The significant reduction in transfer latency time indicated improvement in memory.” for “was performed.”

Series [10] deals with MDA-MB-231 Breast cancer cell line. Put plainly: Antiproliferative activity, MDA-MB-231. To be noted: MDA-MB-231; mesylate. It is filed as cell-based, human. As to the method: as §3, §4, §5
Series [11] relates to T98 Glioblastoma cell line. The series can be described thus: Antiproliferative activity, T98. As to conditions: T98; mesylate. In kind it is cell-based, human. Here is the method: as §3, §4, §5
The test system of series [12] is HCT116 colorectal cancer cell line. The series can be described thus: Antiproliferative activity, HCT116. In kind it is cell-based. To be noted: Homo sapiens, HCT-116. Here is the method:
as §3, §4, §5

The next series deals with HL60 leukemia cell line. Put plainly: Antiproliferative activity, HL60. In kind it is cell-based. As to conditions: Homo sapiens, HL-60. As to the method: as §3, §4, §5

T1 sequence (Q13547 whole entry): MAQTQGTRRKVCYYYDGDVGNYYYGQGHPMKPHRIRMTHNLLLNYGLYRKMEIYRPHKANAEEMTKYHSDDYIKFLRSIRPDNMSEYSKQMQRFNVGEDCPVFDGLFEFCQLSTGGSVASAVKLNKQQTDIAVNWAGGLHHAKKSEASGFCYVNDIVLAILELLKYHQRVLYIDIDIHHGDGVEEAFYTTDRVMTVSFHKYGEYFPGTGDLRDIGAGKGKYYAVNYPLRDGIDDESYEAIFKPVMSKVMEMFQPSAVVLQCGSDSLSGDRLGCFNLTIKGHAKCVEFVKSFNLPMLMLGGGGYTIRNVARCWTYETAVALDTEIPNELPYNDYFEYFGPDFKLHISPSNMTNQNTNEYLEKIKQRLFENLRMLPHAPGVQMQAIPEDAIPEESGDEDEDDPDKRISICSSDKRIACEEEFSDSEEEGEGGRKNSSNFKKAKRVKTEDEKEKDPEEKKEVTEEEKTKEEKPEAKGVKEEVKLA

`O=C(NO)c1ccc(CNc2cccc3ncccc23)cc1` [Compound 12, N-hydroxy-4-((quinolin-5-ylamino)methyl)benzamide]: the IC50 at HDAC1 amounted to 2650 nM; on HDAC6, 2.73 nM. Moreover, the GI50 in series [1] turned out to be 3280 ± 110 nM; in series [2], 5530 ± 240 nM. Also, the APP expression entry in series [3] is “markedly reduced the APP expression”. Also, the Aβ42 production result in series [4] was “decreased Aβ42 production”. Besides, the results for the “% TGI” value in series [5] and in [6] were 72.2% and 64.5%, respectively. Also, the tolerability result in series [7] was “well tolerated”. Also, the “time spent in the correct quadrant (water maze)” value in series [8] is “markedly reverse this effect”. Also, in series [9], the “transfer latency time (elevated plus maze)” value is listed as “significantly rescued scopolamine-mediated increase of transfer latency time”.

As to `O=C(NO)c1ccc(CNc2cccc3cccnc23)cc1` [Compound 28-mesylate, N-Hydroxy-4-(quinolin-8-ylaminomethyl)-benzamide mesylate], the GI50 was 1360 ± 250 nM in series [10] and 10800 ± 830 nM in [11].

For the compound `O=C(NO)c1ccc(Nc2cccc3cccnc23)cc1` [Compound 59, N-hydroxy-4-(quinolin-8-ylamino)benzamide], the GI50 in [12] stood at 3320 ± 210 nM; with HL60 leukemia cell line it was 6640 ± 690 nM.

Consider `O=C(NO)c1ccc(CNc2nccc3ccccc23)cc1` [Compound 61, N-hydroxy-4-((isoquinolin-1-ylamino)methyl)benzamide], for which the results for the GI50 (in [12]; in the series with HL60 leukemia cell line) were 660 ± 100 nM and 1170 ± 230 nM, respectively.

In the case of `O=C(NO)c1ccc(CNc2cncc3ccccc23)cc1` [Compound 63, N-hydroxy-4-((isoquinolin-4-ylamino)methyl)benzamide], the GI50 in [12] was 1200 ± 140 nM; in the series with HL60 leukemia cell line, 1960 ± 160 nM.

As to `O=C(NO)c1ccc(CNc2cccc3nccnc23)cc1` [Compound 66, N-hydroxy-4-((quinoxalin-5-ylamino)methyl)benzamide], the GI50 came to 1950 ± 210 nM in series [12] and 5580 ± 150 nM in the series with HL60 leukemia cell line.
